The values that follow come from US10343992B2, “1-cyano-pyrrolidine compounds as USP30 inhibitors” (MISSION THERAPEUTICS LIMITED, priority 2015, dated 2019).

In this test the target is USP30 (Homo sapiens (Human), UniProt Q70CQ3). Put plainly: USP30 biochemical FP or FI IC50 assay. As to conditions: read-out: IC50 range. The procedure: USP30 Biochemical IC50 Assay
USP30, sequence (Q70CQ3 57-517): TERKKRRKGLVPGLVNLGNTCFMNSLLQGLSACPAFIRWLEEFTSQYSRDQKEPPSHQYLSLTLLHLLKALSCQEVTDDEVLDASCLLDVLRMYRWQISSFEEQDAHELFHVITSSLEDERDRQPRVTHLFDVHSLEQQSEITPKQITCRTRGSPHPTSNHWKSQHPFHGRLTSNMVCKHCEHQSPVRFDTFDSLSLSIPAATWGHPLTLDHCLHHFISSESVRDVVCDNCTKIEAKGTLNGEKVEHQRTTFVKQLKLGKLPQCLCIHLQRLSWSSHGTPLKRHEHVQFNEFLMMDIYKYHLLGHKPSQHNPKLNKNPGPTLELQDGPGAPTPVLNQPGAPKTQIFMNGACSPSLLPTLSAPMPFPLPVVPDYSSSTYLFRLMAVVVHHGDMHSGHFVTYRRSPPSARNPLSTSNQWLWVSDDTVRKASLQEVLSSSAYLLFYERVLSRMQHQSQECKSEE
Dilution plates were prepared at 21 times the final concentration (2100 μM for a final concentration of 100 μM) in 50% DMSO in a 96-well polypropylene V-bottom plate (Greiner #651201). A typical 8-point dilution series would be 100, 30, 10, 3, 1, 0.3, 0.1, 0.03 μM final. Reactions were performed in duplicate in black 384 well plates (small volume, Greiner 784076) in a final reaction volume of 21 μl. Either 1 μl of 50% DMSO or diluted compound was added to the plate. USP30 was diluted in reaction buffer (40 mM Tris, pH 7.5, 0.005% Tween 20, 0.5 mg/ml BSA, 5 mM—beta-mercaptoethanol) to the equivalent of 0.05 μl/well and 10 μl of diluted USP30 was added to the compound. Enzyme and compound were incubated for 30 min at room temp. Reactions were initiated by the addition of 50 nM of TAMRA labelled peptide linked to ubiquitin via an iso-peptide bond as fluorescence polarisation substrate. Reactions were read immediately after addition of substrate and following a 2 hr incubation at room temperature. Readings were performed on a Pherastar Plus (BMG Labtech). λ Excitation 540 nm; λ Emission 590 nm.
USP30 Biochemical Fluorescence Intensity IC50 Assay
Dilution plates were prepared at 21 times the final concentration (2100 μM for a final concentration of 100 μM) in 50% DMSO in a 96-well polypropylene V-bottom plate (Greiner #651201). A typical 8-point dilution series would be 100, 30, 10, 3, 1, 0.3, 0.1, 0.03 μM final. Reactions were performed in duplicate in black 384 well plates (small volume, Greiner 784076) in a final reaction volume of 21 μl.
Either 1 μl of 50% DMSO or diluted compound was added to the plate. USP30 was diluted in reaction buffer (40 mM Tris, pH 7.5, 0.005% Tween 20, 0.5 mg/ml BSA, 5 mM—beta-mercaptoethanol) to the equivalent of 0.001 μl/well and 10 μl of diluted USP30 was added to the compound. Enzyme and compound were incubated for 30 min at room temp. Reactions were initiated by the addition of Ubiquitin-Rhodamine 110 (U-555; Boston Biochem) at a final concentration of 100 nM. Reactions were read immediately after addition of substrate and following a 2 h incubation at room temperature. Readings were performed on a Pherastar Plus (BMG Labtech). λ Excitation 487 nm; λ Emission 535 nm.
For the compound `Cc1nn(C)cc1-c1ccc(C(=O)N[C@@H]2CCN(C#N)C2)c(F)c1` [Example 80, (R)-N-(1-cyanopyrrolidin-3-yl)-4-(1,3-dimethyl-1H-pyrazol-4-yl)-2-fluorobenzamide], the IC50 was less than 100 nM.
As to `C[C@@H]1[C@H](NC(=O)c2ccc(-c3ccc(F)cc3)cn2)CCN1C#N` (racemic) [Example 174, N-((cis)-1-cyano-2-methylpyrrolidin-3-yl)-5-(4-fluorophenyl)picolinamide], the IC50 is 100 to 1000 nM.
Consider `N#CN1CC[C@@H](NC(=O)c2ccc(-c3ccccc3)cc2)C1` [Example 35, (R)-N-(1-cyanopyrrolidin-3-yl)-[1,1′-biphenyl]-4-carboxamide], for which the IC50 was less than 100 nM.
As for `N#CN1CC[C@@H](NC(=O)c2ccnc(N3Cc4ccccc4C3)c2)C1` [Example 73, (R)—N-(1-cyanopyrrolidin-3-yl)-2-(isoindolin-2-yl)isonicotinamide], the IC50 was 100 to 1000 nM.
For `N#CN1CCC(NC(=O)c2cc(-c3cccc(Cl)c3)no2)C1` (racemic) [Example 8, 3-(3-chlorophenyl)-N-(1-cyanopyrrolidin-3-yl)isoxazole-5-carboxamide] the value was less than 100 nM.
As for `C[C@H]1CN(C#N)C[C@@H]1NC(=O)c1ccc(N2CCOCC2)c(Cl)c1` (racemic) [Example 175, 3-chloro-N-((trans)-1-cyano-4-methylpyrrolidin-3-yl)-4-morpholinobenzamide], the half-maximal inhibitory concentration (IC50) was less than 100 nM.
The value for “(3aR,6aR)-1-(indoline-1-carbonyl)hexahydropyrrolo[3,4-b]pyrrole-5(1H)-carbonitrile [Example 269]” was 1000 to 10000 nM.
Regarding `Cc1cc(C(=O)N[C@@H]2CCN(C#N)C2)nn1C(C)c1ccccc1` (stereo partly drawn) [Example 150, N-((R)-1-cyanopyrrolidin-3-yl)-5-methyl-1-(1-phenylethyl)-1H-pyrazole-3-carboxamide], the IC50 was 100 to 1000 nM.
Consider `Cn1cc(-c2ccc(C(=O)N[C@@H]3CCN(C#N)C3)cc2F)cn1` [Example 76, (R)-N-(1-cyanopyrrolidin-3-yl)-3-fluoro-4-(1-methyl-1H-pyrazol-4-yl)benzamide], for which the IC50 is less than 100 nM.
Regarding `N#CN1CC[C@@H](NC(=O)c2cc(-c3ccccn3)no2)C1` [Example 66, (R)-N-(1-cyanopyrrolidin-3-yl)-3-(pyridin-2-yl)isoxazole-5-carboxamide], the IC50 is 100 to 1000 nM.
`Cc1nn(C)cc1-c1ccc(C(=O)N[C@@H]2CCN(C#N)C2)cc1F` [Example 79, (R)-N-(1-cyanopyrrolidin-3-yl)-4-(1,3-dimethyl-1H-pyrazol-4-yl)-3-fluorobenzamide]: the IC50 is less than 100 nM.
Consider `N#CN1CCC(NC(=O)Nc2cccc(Cc3ccccc3)c2)C1` (stereo not shown) [Example 253, 1-(3-benzylphenyl)-3-(1-cyanopyrrolidin-3-yl)urea], for which the IC50 lay within 100 to 1000 nM.
As for `N#CN1CC[C@@H](NC(=O)c2ccc3c(c2)OCCN3c2ncccn2)C1` [Example 211, (R)-N-(1-cyanopyrrolidin-3-yl)-4-(pyrimidin-2-yl)-3,4-dihydro-2H-benzo[b][1, 4]oxazine-7-carboxamide], the IC50 fell in the range of 100 to 1000 nM.
For `N#CN1CC[C@@H](NC(=O)c2ccc(F)c(-c3ccncc3)c2)C1` [Example 42, (R)-N-(1-cyanopyrrolidin-3-yl)-4-fluoro-3-(pyridin-4-yl)benzamide], the IC50 lay within 100 to 1000 nM.
`N#CN1CC[C@@H](NC(=O)c2cc(-c3ccccn3)ccn2)C1` [Example 217, (R)-N-(1-cyanopyrrolidin-3-yl)-[2, 4′-bipyridine]-2′-carboxamide]: the IC50 was in the range of 100 to 1000 nM.
The value for `N#CN1CC[C@@H](NC(=O)c2cc(-c3ccccc3)cnn2)C1` [Example 67, (R)—N-(1-cyanopyrrolidin-3-yl)-5-phenylpyridazine-3-carboxamide] was 100 to 1000 nM; that for `CCN(C(=O)c1cnc2cc(-c3ccnc(C)c3)ccn12)[C@@H]1CCN(C#N)C1` [Example 165, (R)-N-(1-cyanopyrrolidin-3-yl)-N-ethyl-7-(2-methylpyridin-4-yl)imidazo[1,2-a]pyridine-3-carboxamide] was 100 to 1000 nM.
For the compound `N#CN1CC[C@@H](NC(=O)c2cccc(-c3ccccc3)n2)C1` [Example 29, (R)-N-(1-cyanopyrrolidin-3-yl)-6-phenylpicolinamide], the IC50 was 100 to 1000 nM.
Turning to `CN(C(=O)c1ccc2c(c1)CCN2c1nccc(C2CC2)n1)[C@@H]1CCN(C#N)C1` [Example 240, (R)-N-(1-cyanopyrrolidin-3-yl)-1-(4-cyclopropylpyrimidin-2-yl)-N-methylindoline-5-carboxamide], the IC50 was less than 100 nM.
For the compound `Cc1noc(C)c1-c1ccc2[nH]c(C(=O)N(C)[C@@H]3CCN(C#N)C3)nc2c1` [Example 158, (R)-N-(1-cyanopyrrolidin-3-yl)-6-(3,5-dimethylisoxazol-4-yl)-N-methyl-1H-benzo[d]imidazole-2-carboxamide], the IC50 was 100 to 1000 nM.
On to `N#CN1C[C@H]2CCN(C(=O)Nc3ccc(OC(F)(F)F)cc3F)[C@H]2C1` [Example 197, (3aR,6aR)-5-cyano-N-(2-fluoro-4-(trifluoromethoxy)phenyl)hexahydropyrrolo[3,4-b]pyrrole-1(2H)-carboxamide], for which the 50% inhibitory concentration (IC50) was less than 100 nM.
With `N#CN1CC[C@@H](N2CCN(c3nc(-c4ccccc4)cs3)C2=O)C1` [Example 208, (R)-3-(2-oxo-3-(4-phenylthiazol-2-yl)imidazolidin-1-yl)pyrrolidine-1-carbonitrile], the IC50 lay in the range of 100 to 1000 nM.
With `N#CN1CC[C@@H](NC(=O)N2CC(c3cccc(Cl)c3)C2)C1` [Example 192, (R)-3-(3-chlorophenyl)-N-(1-cyanopyrrolidin-3-yl)azetidine-1-carboxamide], the IC50 was less than 100 nM.
As to `N#CN1C[C@H]2CCN(C(=O)c3cn(-c4ccccc4)cn3)[C@H]2C1` (racemic) [Example 54, rac-(3aR,6aR)-1-(1-phenyl-1H-imidazole-4-carbonyl)hexahydropyrrolo[3,4-b]pyrrole-5(1H)-carbonitrile], the concentration for half-maximal inhibition (IC50) is 100 to 1000 nM.
The value for `Cn1cc(-c2ccc(F)c(C(=O)N[C@@H]3CCN(C#N)C3)c2)cn1` [Example 107, (R)-N-(1-cyanopyrrolidin-3-yl)-2-fluoro-5-(1-methyl-1H-pyrazol-4-yl)benzamide] was 100 to 1000 nM; that for `N#CN1C[C@H]2CCN(C(=O)N3CC(Oc4ccccc4)C3)[C@H]2C1` [Example 247, (3aR,6aR)-1-(3-phenoxyazetidine-1-carbonyl)hexahydropyrrolo[3,4-b]pyrrole-5(1H)-carbonitrile] was 100 to 1000 nM; that for `CN(C(=O)c1ccc(-c2ccncc2Cl)cc1)[C@@H]1CCN(C#N)C1` [Example 49, (R)-4-(3-chloropyridin-4-yl)-N-(1-cyanopyrrolidin-3-yl)-N-methylbenzamide] was 100 to 1000 nM.
As to `COc1ccc(-c2cc(C(=O)N3CC[C@@H]4CN(C#N)C[C@@H]43)[nH]n2)cc1` (racemic) [Example 55, rac-(3aR,6aR)-1-(3-(4-methoxyphenyl)-1H-pyrazole-5-carbonyl)hexahydropyrrolo[3,4-b]pyrrole-5(1H)-carbonitrile], the 50% inhibitory concentration (IC50) fell in the range of 100 to 1000 nM.
In the case of `Cc1cc(-c2cc(C(=O)N[C@@H]3CCN(C#N)C3)on2)ccn1` [Example 270, (R)-N-(1-cyanopyrrolidin-3-yl)-3-(2-methylpyridin-4-yl)isoxazole-5-carboxamide], the IC50 lay in the range of 100 to 1000 nM.
In the case of `N#CN1CCCC(NC(=O)Nc2cccc(Oc3ccccc3)c2)C1` (stereo not shown) [Example 250, 1-(1-cyanopiperidin-3-yl)-3-(3-phenoxyphenyl)urea], the IC50 is 1000 to 10000 nM.
For `CN(C(=O)N1CCc2ccccc21)[C@@H]1CCN(C#N)C1` [Example 265, (R)-N-(1-cyanopyrrolidin-3-yl)-N-methylindoline-1-carboxamide], the IC50 is 1000 to 10000 nM.
For `N#CN1CC[C@@H](NC(=O)c2cc(-c3ccc(C(F)(F)F)cc3)no2)C1` [Example 219, (R)-N-(1-cyanopyrrolidin-3-yl)-3-(4-(trifluoromethyl)phenyl)isoxazole-5-carboxamide] the value was 100 to 1000 nM.
The value for `N#Cc1cc(F)c(NC(=O)N2CC[C@@H]3CN(C#N)C[C@@H]32)cc1F` [Example 199, (3aR,6aR)-5-cyano-N-(4-cyano-2,5-difluorophenyl)hexahydropyrrolo[3,4-b]pyrrole-1(2H)-carboxamide] was 100 to 1000 nM.
For `N#CN1CCCC(NC(=O)c2cccc(-c3ccccc3)c2)C1` (stereo not shown) [Example 248, N-(1-cyanopiperidin-3-yl)-[1,1′-biphenyl]-3-carboxamide] the value was 1000 to 10000 nM.

In general, IC50 refers to the concentration at which inhibition is half-maximal.
